Where a SMILES comes first, the peptide text is derived from it. Bridges are numbered along the chain shown (N, C = ends).
Tested on: E. coli K88
Assay: Electron microscopy (SEM, TEM) of treated bacteria
Assay type: cell-based
Protocol: Scanning electron microscope (SEM) was performed to test the morphological features of E. coli K88 cells by comparing cells incubated in the absence (control) or presence of MccJ25. For SEM sample preparation, the standard protocol was used based on our previous report ([26]) with slight modifications. Overnight E. coli K88 cultures were inoculated and grown to the mid-logarithmic phase in the fresh LB medium at 37°C for 2 h, then harvested by centrifugation, washed twice with PBS and re-suspended in the same buffer. Approximately 2 × 10^7 cells were incubated with 1 and 2 × MIC MccJ25 at 37°C for 1 h. Thereafter, cells were pooled and centrifuged at 5000 g for 5 min. Bacterial pellets were washed 3 times with PBS and centrifuged after each wash. Cells were fixed with 2.5% glutaraldehyde at 4°C overnight and washed 2 times with PBS. They were then harvested, post-fixed with 1% osmium tetroxide for 1 h and dehydrated for 15 min each in a graded ethanol series (50, 70, 80, 90, 95 and 100%). Cells were then treated with absolute acetone for 20 min, a mixture of alcohol and iso-amyl acetate (1:1) for 30 min and pure iso-amyl acetate for 1 h. Lastly, samples were dehydrated in a critical point dryer (Model HCP-2, Hitachi, Chiyoda-ku, Tokyo, Japan) with liquid CO2. The dehydrated samples were coated with gold-palladium and observed by SEM (Model EVO MA10 XVP, Carl Zeiss, Jena, GmbH, Germany). […]

## CC[C@H](C)[C@H](NC(=O)CNC(=O)[C@@H](NC(=O)[C@H](Cc1ccccc1)NC(=O)[C@H](Cc1ccc(O)cc1)NC(=O)[C@@H]1CCC(=O)NCC(=O)NCC(=O)N[C@@H](C)C(=O)NCC(=O)N[C@@H](Cc2c[nH]cn2)C(=O)N[C@@H](C(C)C)C(=O)N2CCC[C@H]2C(=O)N1)C(C)C)C(=O)NCC(=O)N[C@H](C(=O)N1CCC[C@H]1C(=O)N[C@H](C(=O)N[C@@H](CO)C(=O)N[C@@H](Cc1ccccc1)C(=O)N[C@@H](Cc1ccc(O)cc1)C(=O)NCC(=O)O)[C@@H](C)CC)[C@@H](C)O [MccJ25, microcin J25] (GGAGHVPEYFVGIGTPISFYG-OH; lactam N-8 (inferred); C-terminus assumed)
1 × and 2 × MIC, 60 min
  cell morphology by SEM: filamentous and elongated
1 ×, 2 × and 4 × MIC, 0.5 and 1 h
  cell membranes by TEM: disrupted

Source: paper PMC8894198, “Biosynthetic Microcin J25 Exerts Strong Antibacterial, Anti-Inflammatory Activities, Low Cytotoxicity Without Increasing Drug-Resistance to Bacteria Target” (Frontiers in Immunology, 2022)
